This is an account of results in US6090945A, “Tetrahydro-beta-carbolines” (Eli Lilly and Company, priority 1998, dated 2000).

In one assay the target is 5-HT2 receptor (Rattus norvegicus, UniProt P14842). As to the kind of experiment: 5-HT2 radioligand binding assay ([3H]ketanserin displacement). The arrangement: species or system rat (Sprague-Dawley cerebral cortex).
The target in another assay is T1, 5-HT1c receptor (Bos taurus, UniProt A0AAA9SBU1).
T1 sequence (A0AAA9SBU1 33-457): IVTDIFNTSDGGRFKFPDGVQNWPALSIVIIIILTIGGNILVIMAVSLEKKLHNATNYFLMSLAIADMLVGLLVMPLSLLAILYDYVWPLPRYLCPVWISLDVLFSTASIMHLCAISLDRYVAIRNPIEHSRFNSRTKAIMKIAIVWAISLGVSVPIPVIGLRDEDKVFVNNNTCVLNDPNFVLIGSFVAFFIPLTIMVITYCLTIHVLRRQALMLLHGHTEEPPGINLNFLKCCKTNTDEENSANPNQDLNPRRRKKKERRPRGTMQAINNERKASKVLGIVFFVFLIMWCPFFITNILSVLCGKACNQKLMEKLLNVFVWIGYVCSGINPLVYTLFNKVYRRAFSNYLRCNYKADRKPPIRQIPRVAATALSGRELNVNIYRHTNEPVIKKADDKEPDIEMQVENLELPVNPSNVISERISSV
As to the kind of experiment: 5-HT1c radioligand binding assay ([3H]mesulergine displacement). The conditions noted are these: read-out: 5HT1C IC50 (binding displacement); choroid plexus; tritiated mesulergine 2.0 nM; 37° C., 15 minutes.

Where [1] appears, read: rat cerebral cortex, tritiated ketanserin 1 nM, 37° C., read-out: 5HT2 IC50 (binding displacement).

SMILES strings stand for the structures. Counter-ions that a name gives are not always drawn. Like-named read-outs stand apart in the source and are kept apart here.

What is called IC50 is the midpoint of a concentration-inhibition curve.

Chain of 5-HT2 receptor (P14842 whole entry): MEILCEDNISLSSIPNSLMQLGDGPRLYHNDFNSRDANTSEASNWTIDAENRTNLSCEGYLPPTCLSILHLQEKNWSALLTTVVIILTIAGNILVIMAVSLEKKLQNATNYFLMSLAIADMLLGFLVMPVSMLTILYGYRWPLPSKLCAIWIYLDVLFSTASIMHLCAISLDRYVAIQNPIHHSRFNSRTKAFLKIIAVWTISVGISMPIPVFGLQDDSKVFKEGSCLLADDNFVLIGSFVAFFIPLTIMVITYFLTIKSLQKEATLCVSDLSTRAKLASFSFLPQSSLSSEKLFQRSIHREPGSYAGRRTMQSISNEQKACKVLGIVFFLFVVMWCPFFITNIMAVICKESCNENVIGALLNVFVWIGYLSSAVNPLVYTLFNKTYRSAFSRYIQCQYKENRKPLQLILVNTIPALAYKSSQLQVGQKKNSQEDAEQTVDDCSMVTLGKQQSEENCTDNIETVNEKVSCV
Method for 5-HT1c receptor: I. Assay for 5-HT1c Affinity
Beef brain was removed immediately after slaughter, and choroid plexus were dissected over ice. […] Tissues were homogenized in 9 volumes of 0.32 mol/L sucrose and centrifuged at 1,000×g for 10 minutes. The supernatant was centrifuged at 17,000×g for 20 minutes. The pellet was suspended in 100 volumes of 50 mM Tris-HCl (pH7.4), incubated at 37° C. for 10 minutes and centrifuged at 50,000×g for 10 minutes, and the process was repeated three times. The final pellets were frozen at -70° C. and used within 2 weeks. Pellets were rehydrated with physiological buffer prior to use.
The reactions were terminated by rapid filtration, (Brandel Cell Harvestor), through Whatman GF/B glass filters that had been presoaked in Tris buffer pH 7.4. The filters were then washed 2 times with 5 ml of ice cold Tris buffer pH 7.4. Washed filters were placed in scintillation vials and 10 ml RedySolv, (Brandel), was added and samples were counted in a Searle D-300 beta counter. Means and standard error statistics were calculated for triplicate experimental determinations in certain cases. Mean values were obtained from three or more separate determinations. The incubation time for the reaction mixture was 15 minutes at 37° C.

`CCc1ccc2[nH]c3c(c2c1)CCN[C@H]3[C@H](C)c1ccc(OC)c(OC)c1` (relative stereo) [Example 42, (±) 6-ethyl-1-[(3,4-dimethoxyphenyl)-1-ethyl]-1,2,3,4-tetrahydro-9H-pyrido[3,4-b]indole (Z)-2-butenedioate]: the figures for the half-maximal inhibitory concentration (IC50) at 5-HT2 receptor (setting [1]) and at 5-HT1c receptor were 211 nM and 86 nM, respectively.
In the case of `COc1ccc(CC2NCCc3c2[nH]c2c(C)cccc32)cc1OC` (stereo not shown) [Example 1, 8-methyl-1-[(3,4-dimethoxyphenyl)methyl]-1,2,3,4-tetrahydro-9H-pyrido[3,4-b]indole], the IC50 at 5-HT2 receptor (setting [1]) came out at 310 nM; on 5-HT1c receptor, 213 nM.
On to `COc1ccc(CC2NCCc3c2[nH]c2c(Br)cccc32)cc1OC` (stereo not shown) [Example 2, 8-bromo-1-[(3,4-dimethoxyphenyl)methyl]-1,2,3,4-tetrahydro-9H-pyrido[3,4-b]indole hydrochloride], for which the values for the IC50 on 5-HT2 receptor and on 5-HT1c receptor were 67 nM and 34 nM, respectively.
For the compound `COc1ccc(CC2NCCc3c2[nH]c2c(OC)cccc32)cc1OC` (stereo not shown) [Example 5, 8-methoxy-1-[(3,4-dimethoxyphenyl)methyl]-1,2,3,4-tetrahydro-9H-pyrido[3,4-]indole], the values for the IC50 at 5-HT2 receptor (setting [1]) and at 5-HT1c receptor were 255 nM and 237 nM, respectively.
On the same counts, the results for `COc1ccc(CC2NCCc3c2[nH]c2ccc(C(C)(C)C)cc32)cc1OC` (stereo not shown) [Example 8, 6-(1,1-dimethylethyl)-1-[(3,4-dimethoxyphenyl)methyl]1,2,3,4-tetrahydro-1-9H-pyrido-[3,4b]indole hydrochloride] are more than 100 nM and 22 nM.
On the same counts, the results for `COc1ccc(CC2NCCc3c2[nH]c2ccc(C)c(F)c32)cc1OC` (stereo not shown) [Example 9, 5-fluoro-6-methyl-1-[(3,4-dimethoxyphenyl)-methyl]-1,2,3,4-tetrahydro-9H-pyrido[3,4-b]indole] are 141 nM and 18 nM.
As to `COc1ccc(CC2NCCc3c2[nH]c2ccc(C4CCCCC4)cc32)cc1OC` (stereo not shown) [Example 11, 6-cyclohexyl-1-[(3,4-dimethoxyphenyl)-methyl]-1,2,3,4-tetrahydro-9H-pyrido[3,4-b]indole hydrochloride], the figures for the IC50 at 5-HT2 receptor and at 5-HT1c receptor were more than 1000 nM and 365 nM, respectively.
Take `COc1ccc(CC2NCCc3c2[nH]c2c(C)ccc(C)c32)cc1OC` (stereo not shown) [Example 12, 5,8-dimethyl-1,2,3,4-tetrahydro-1-[(3,4-dimethoxyphenyl)methyl]-9H-pyrido[3,4b]indole hydrochloride]: the 50% inhibitory concentration (IC50) on 5-HT2 receptor (setting [1]) is more than 100 nM; on 5-HT1c receptor, 15 nM.
For `COc1ccc(CC2NCCc3c2[nH]c2c(C)cc(C)cc32)cc1OC` (stereo not shown) [Example 14, 6,8-dimethyl-1,2,3,4-tetrahydro-1-[(3,4-dimethoxyphenyl)methyl]-9H-pyrido[3,4b]indole hydrochloride], the values for the concentration for half-maximal inhibition (IC50) on 5-HT2 receptor (setting [1]) and at 5-HT1c receptor were more than 100 nM and 34 nM, respectively.
The like results for `CCc1ccc2[nH]c3c(c2c1)CCNC3Cc1ccc(OC)c(OC)c1` (stereo not shown) [Example 17, 6-ethyl-1,2,3,4-tetrahydro-1-[(3,4-dimethoxyphenyl)methyl]-9H-pyrido[3,4b]indole] were, in that order, 286 nM and 73 nM.
The like results for `COc1ccc(CC2NCCc3c2[nH]c2ccc(Br)cc32)cc1OC` (stereo not shown) [Example 18, 6-bromo-1,2,3,4-tetrahydro-1-[(3,4-dimethoxyphenyl)methyl]-9H-pyrido[3,4b]indole] were, in that order, 287 nM and 119 nM.
For the compound `COc1ccc(CC2NCCc3c2[nH]c2c(C)c(C)ccc32)cc1OC` (stereo not shown) [Example 19, 7,8-dimethyl-1,2,3,4-tetrahydro-1-[(3,4-dimethoxyphenyl)methyl]-9H-pyrido[3,4b]indole hydrochloride], the results for the IC50 on 5-HT2 receptor (setting [1]) and on 5-HT1c receptor were more than 100 nM and 21 nM, respectively.
On the same counts, the results for `COc1ccc(CC2NCCc3c2[nH]c2ccc(C)cc32)cc1OC` (stereo not shown) [Example 20, 6-methyl-1,2,3,4-tetrahydro-1-[(3,4-dimethoxyphenyl)methyl]-9H-pyrido[3,4b]indole hydrochloride] are 129 nM and 100 nM.
As for `COc1cc(CC2NCCc3c2[nH]c2ccc(C)cc32)cc(OC)c1OC` (stereo not shown) [Example 21, 6-methyl-1-[(3,4,5-trimethoxyphenyl)-methyl]-1,2,3,4-tetrahydro-9H-pyrido[3,4-b]indole hydrochloride], the half-maximal inhibitory concentration (IC50) on 5-HT2 receptor was determined as 1080 nM; at 5-HT1c receptor it was 83 nM.
Consider `COc1ccccc1CC1NCCc2c1[nH]c1ccc(C)cc21` (stereo not shown) [Example 23, 6-methyl-1-[(2-methoxyphenyl)methyl]-1,2,3,4-tetrahydro-9H-pyrido[3,4-b]indole hydrochloride], for which the concentration for half-maximal inhibition (IC50) at 5-HT1c receptor was found to be 57 nM.
For the compound `COc1ccc(CC2NCCc3c2[nH]c2ccc(C)cc32)c(OC)c1` (stereo not shown) [Example 24, 6-methyl-1-[(2,4-dimethoxyphenyl)methyl]-1,2,3,4-tetrahydro-9H-pyrido[3,4-b]indole hydrochloride], the IC50 turned out to be 74 nM on 5-HT2 receptor and 17 nM on 5-HT1c receptor.
With `COc1ccc(OC)c(CC2NCCc3c2[nH]c2ccc(C)cc32)c1` (stereo not shown) [Example 25, 6-methyl-1-[(2,5-dimethoxyphenyl)methyl]-1,2,3,4-tetrahydro-9H-pyrido[3,4-b]indole hydrochloride], the IC50 at 5-HT1c receptor was 79 nM.
Same read-out and setting: to `COc1cc(OC)c(OC)cc1CC1NCCc2c1[nH]c1ccc(C)cc21` (stereo not shown) [Example 26, 6-methyl-1-[(2,4,5-trimethoxyphenyl)-methyl]-1,2,3,4-tetrahydro-9H-pyrido[3,4-b]indole hydrochloride] belongs 53 nM.
Turning to `COc1cc(CC2NCCc3c2[nH]c2ccc(C)cc32)cc([N+](=O)[O-])c1OC` (stereo not shown) [Example 28, 6-methyl-1-[(3,4-dimethoxy-5-nitrophenyl)-methyl]-1,2,3,4-tetrahydro-9H-pyrido[3,4-b]indole hydrochloride], the IC50 on 5-HT2 receptor was 1000 nM; at 5-HT1c receptor it was 404 nM.
As to `COc1cc(CC2NCCc3c2[nH]c2ccc(C)cc32)cc(I)c1OC` (stereo not shown) [Example 29, 6-methyl-1-[(3-iodo-4,5-dimethoxy-phenyl)-methyl]-1,2,3,4-tetrahydro-9H-pyrido[3,4-b]indole], the IC50 came to 1010 nM on 5-HT2 receptor (setting [1]) and 257 nM at 5-HT1c receptor.
As for `COc1cc(CC2NCCc3c2[nH]c2ccc(C)cc32)cc(N)c1OC` (stereo not shown) [Example 30, 6-methyl-1-[(3,4-dimethoxy-5-amino-phenyl)-methyl]-1,2,3,4-tetrahydro-9H-pyrido[3,4-b]indole dihydrochloride], the IC50 on 5-HT2 receptor stood at 792 nM; at 5-HT1c receptor, 224 nM.
For `CCCOc1ccc(CC2NCCc3c2[nH]c2ccc(C)cc32)cc1OC` (stereo not shown) [Example 31, 6-methyl-1-[(3-methoxy-4-propoxyphenyl)-methyl]-1,2,3,4-tetrahydro-9H-pyrido[3,4-b]indole], the IC50 at 5-HT2 receptor (setting [1]) came to 385 nM; at 5-HT1c receptor it was 107 nM.
As for `COc1ccc(CC2NCCc3c2[nH]c2ccc(C)cc32)cc1F` (stereo not shown) [Example 34, 6-methyl-1-[(3-fluoro-4-methoxyphenyl)-methyl]-1,2,3,4-tetrahydro-9H-pyrido[3,4-b]indole hydrochloride], the IC50 on 5-HT2 receptor amounted to 250 nM; on 5-HT1c receptor, 95 nM.
The like results for `Cc1ccc2[nH]c3c(c2c1)CCNC3Cc1ccc(C)c(C)c1` (stereo not shown) [Example 35, 6-methyl-1-[(3,4-dimethylphenyl)methyl]-1,2,3,4-tetrahydro-9H-pyrido[3,4-b]indole hydrochloride] were, in that order, more than 100 nM and 61 nM.
On the same counts, the results for `COc1ccc(CC2NCCc3c2[nH]c2ccc(C)cc32)c(Cl)c1OC` (stereo not shown) [Example 36, 6-methyl-1-[(2-chloro-3,4-dimethoxyphenyl)-methyl]-1,2,3,4-tetrahydro-9H-pyrido[3,4-b]indole hydrochloride] are 100 nM and 57 nM.
On the same counts, the results for `COc1c(O)ccc(CC2NCCc3c2[nH]c2ccc(C)cc32)c1Cl` (stereo not shown) [Example 37, 6-methyl-1-[(2-chloro-3-methoxy-4-hydroxyphenyl)methyl]-1,2,3,4-tetrahydro-9H-pyrido[3,4-b]-indole hydrochloride] are 100 nM and 29 nM.
On to `COc1ccc(CC2NCCc3c2[nH]c2ccc(C)c(F)c32)c(Cl)c1OC` (stereo not shown) [Example 38, 5-fluoro-6-methyl-1-[(2-chloro-3,4-dimethoxyphenyl)methyl]-1,2,3,4-tetrahydro-9H-pyrido[3,4-b]indole hydrochloride], for which the IC50 was more than 100 nM on 5-HT2 receptor and 11 nM on 5-HT1c receptor.
The like results for `Cc1ccc2[nH]c3c(c2c1)CCNC3CC1CCCCC1` (stereo not shown) [Example 39, 6-methyl-1-(cyclohexylmethyl)-1,2,3,4-tetrahydro-9H-pyrido[3,4-b]indole hydrochloride] were, in that order, 620 nM and 498 nM.
For the compound `COc1ccc(CC2c3[nH]c4ccc(C)cc4c3CCN2C)c(Cl)c1OC` (stereo not shown) [Example 44, 2,6-dimethyl-1-[(2-chloro-3,4-dimethoxyphenyl)methyl]-1,2,3,4-tetrahydro-9H-pyrido[3,4-b]indole hydrochloride], the IC50 at 5-HT1c receptor worked out at 386 nM.
On the same count and under the same terms, to `COc1ccc(CC2c3[nH]c4ccc(C(C)C)cc4c3CCN2C)cc1OC` (stereo not shown) [Example 45, 2-methyl-6-(1-methylethyl)-1,2,3,4-tetrahydro-1-[(3,4-dimethoxyphenyl)methyl]-9H-pyrido-[3,4b]indole maleate] belongs 452 nM.
